Results published in patent US20210244720A1, “Therapeutic Tyrosine Kinase Inhibitors for Relapsing Multiple Sclerosis (RMS)” (Genzyme Corporation, priority 2020, published 2021).

System: participants with relapsing multiple sclerosis (RMS)
Experiment: Phase 2b study in RMS: safety and tolerability (adverse events, laboratory tests, ECG, vital signs)
Conditions: for proportion of participants with TEAEs: treatment period
[1] = 60 mg, 12 weeks treatment, n = 32
[2] = 60 mg, BTK inhibitor treatment period, safety population, N = 32
[3] = 60 mg, BTK inhibitor treatment period, safety population, N = 33
[4] = 12-week treatment period, 15 mg
[5] = 12-week treatment period, 30 mg
[6] = 12-week treatment period, 60 mg
[7] = All Dose Groups, 12 weeks treatment, N = 130
[8] = All Dose Groups, Weeks 1 to 12, N = 130
[9] = All, BTK inhibitor treatment period, safety population, N = 130

C=CC(=O)N1CCC[C@@H](n2c(=O)n(-c3ccc(Oc4ccccc4)cc3)c3c(N)nccc32)C1 [the BTK inhibitor, (R)-1-(1-acryloylpiperidin-3-yl)-4-amino-3-(4-phenoxyphenyl)-1H-imidazo[4,5-c]pyridin-2(3H)-one]
Nasopharyngitis, patients % [1]: (9%)
Nasopharyngitis, patients n [1]: 3
Oropharyngeal pain, patients % [1]: (3%)
Oropharyngeal pain, patients n [1]: 1
Peripheral edema, patients % [1]: (6%)
Peripheral edema, patients n [1]: 2
Respiratory tract infection, patients % [1]: (3%)
Respiratory tract infection, patients n [1]: 1
Upper respiratory tract infection, patients % [1]: (3%)
Upper respiratory tract infection, patients n [1]: 1
AESI, Alanice aminotransferase increased, n (%) [2]: 1 (3.1)
AESI, Investigations, n (%) [2]: 1 (3.1)
Any AESI, n (%) [2]: 1 (3.1)
Participants with any TEAE, % [3]: (54.5) %
Participants with any treatment-related TEAE, % [3]: (6.1) %
treatment-emergent SAE (60 mg, Cohort 1, MS relapse): One
AESI, Alanice aminotransferase increased, n (%) (60 mg, Weeks 1 to 4, N = 16): 0
AESI, Investigations, n (%) (60 mg, Weeks 1 to 4, N = 16): 0
Any AESI, n (%) (60 mg, Weeks 1 to 4, N = 16): 0
Participants with any TEAE, % (60 mg, Weeks 1 to 4, N = 33): (42.4) %
Participants with any treatment-related TEAE, % (60 mg, Weeks 1 to 4, N = 33): (9.1) %
Any AE, % (60 mg, Weeks 1 to 4, n = 16): (31.3%)
Any treatment-related AE, % (60 mg, Weeks 1 to 4, n = 16): (6.3%)
Any AE, % (60 mg, Weeks 1 to 12, n = 32): (50.0) %
Any treatment-related AE, % (60 mg, Weeks 1 to 12, n = 32): (21.9) %
Serious AE, % (60 mg, Weeks 1 to 12, n = 32): (3.1) %
correlation between dose administered and number of TEAEs (5-60 mg): no direct correlation
TEAE alanine aminotransferase increased (12-week treatment period, 5 mg): 1
TEAE alopecia (12-week treatment period, 5 mg): 1
TEAE back pain (12-week treatment period, 5 mg): 1
TEAE gastroenteritis (12-week treatment period, 5 mg): 1
TEAE headache (12-week treatment period, 5 mg): 1
TEAE nasopharyngitis (12-week treatment period, 5 mg): 1
TEAE oedema peripheral (12-week treatment period, 5 mg): 2
TEAE oropharyngeal pain (12-week treatment period, 5 mg): 1
TEAE upper respiratory tract infection (12-week treatment period, 5 mg): 2
TEAE alopecia [4]: 1
TEAE back pain [4]: 1
TEAE headache [4]: 3
TEAE respiratory tract infection [4]: 1
TEAE upper respiratory tract infection [4]: 2
TEAE alanine aminotransferase increased [5]: 1
TEAE back pain [5]: 2
TEAE headache [5]: 1
TEAE muscle spasticity [5]: 1
TEAE nasopharyngitis [5]: 1
TEAE oropharyngeal pain [5]: 1
TEAE respiratory tract infection [5]: 1
TEAE upper respiratory tract infection [5]: 1
TEAE accidental overdose [6]: 3
TEAE alanine aminotransferase increased [6]: 1
TEAE alopecia [6]: 1
TEAE gastroenteritis [6]: 2
TEAE headache [6]: 4
TEAE muscle spasticity [6]: 2
TEAE nasopharyngitis [6]: 3
TEAE oedema peripheral [6]: 2
TEAE oropharyngeal pain [6]: 1
TEAE respiratory tract infection [6]: 1
TEAE upper respiratory tract infection [6]: 1
tolerability (12 weeks of treatment): well-tolerated
Accidental overdose, patients n (%) [7]: 3 (2%)
Alanine aminotransferase increased, patients n (%) [7]: 3 (2%)
Alopecia, patients n (%) [7]: 3 (2%)
Back pain, patients n (%) [7]: 4 (3%)
Gastroenteritis, patients n (%) [7]: 3 (2%)
Headache, patients n (%) [7]: 9 (7%)
Muscle spasticity, patients n (%) [7]: 3 (2%)
Nasopharyngitis, patients n (%) [7]: 5 (4%)
Oropharyngeal pain, patients n (%) [7]: 3 (2%)
Peripheral edema, patients n (%) [7]: 4 (3%)
Respiratory tract infection, patients n (%) [7]: 3 (2%)
Upper respiratory tract infection, patients n (%) [7]: 6 (5%)
Any AE, % [8]: (53.8) %
Any treatment-related AE, % [8]: (13.1) %
Serious AE, % [8]: (0.8) %
AESI, Alanice aminotransferase increased, n (%) [9]: 2 (1.5)
AESI, Investigations, n (%) [9]: 2 (1.5)
Any AESI, n (%) [9]: 2 (1.5)
Participants with any TEAE, % [9]: (53.1) %
Participants with any severe TEAE, % [9]: (0.8) %
Participants with any treatment emergent SAE, % [9]: (0.8) %
Participants with any treatment-related TEAE, % [9]: (11.5) %
Participants with treatment emergent SAE(s), Any class, n(%) [9]: 1 (0.8)
Participants with treatment emergent SAE(s), Multiple sclerosis relapse, n(%) [9]: 1 (0.8)
Participants with treatment emergent SAE(s), NERVOUS SYSTEM DISORDERS, n(%) [9]: 1 (0.8)
Participants with any TEAE, % (All, Weeks 1 to 4, N = 130): (38.5) %
Participants with any treatment-related TEAE, % (All, Weeks 1 to 4, N = 130): (9.2) %
TEAE headache (Weeks 1 to 4, 5 mg): 3 cases
TEAE nausea (Weeks 1 to 4, 5 mg): 2 cases
proportion of participants who experienced TEAEs (Weeks 1 to 4, 5 mg): 31.3%
TEAE headache (Weeks 1 to 4, 15 mg): 2 cases
proportion of participants who experienced TEAEs (Weeks 1 to 4, 15 mg): 18.8%
TEAE nausea (Weeks 1 to 4, 30 mg): 1 cases
proportion of participants who experienced TEAEs (Weeks 1 to 4, 30 mg): 12.5%
TEAE headache (Weeks 1 to 4, 60 mg): 1 cases
proportion of participants who experienced TEAEs (Weeks 1 to 4, 60 mg): 31.3%
TEAE upper respiratory tract infection (Weeks 1 to 4, each treatment group): 1 case
TEAEs leading to permanent treatment discontinuation (all dose groups): no TEAEs leading to permanent treatment discontinuation
intensity of TEAEs (all dose groups): mild or moderate intensity except for one severe TEAE
PCSAs related to vital signs, labs and ECGs (multiple treatment groups): no dose relationship
proportion of participants with TEAEs (5 mg): 57.6%
proportion of participants with TEAEs (15 mg): 53.1%
proportion of participants with TEAEs (30 mg): 54.5%
proportion of participants with TEAEs (60 mg): 50.0%
AESIs (alanine aminotransferase increased >3×ULN) (whole study): two
deaths (whole study): No deaths
